# Where “and” joins values, the source holds several entries; their conditions need not be identical. Equal values may be shown once.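 Step 1: Grow cells in 96-well plates. Step 2: Expose to compound for 48 hours at 5 concentrations. Step 3: Interpolate endpoints linearly; if unreached, use highest concentration. GI50: concentration for 50% inhibition of growth. TGI denotes the concentration required for complete inhibition of growth.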
# What was measured:
# Test in all cases: NCI anticancer screen, dose series, 48 h
# [1] = system: M19-MEL melanoma
# [2] = system: NCI-H23 lung
# [3] = system: DMS 273 small cell lung
# [4] = system: KM12 colon
# [5] = system: SNB-19 CNS
# [6] = system: MALME-3M melanoma
# [7] = system: HCC-2998 colon
# [8] = system: HOP-92 NSCLC
# [9] = system: COLO 205 colon
# [10] = system: DU-145 prostate
Structure (SMILES),TGI [1] [µM],TGI [2] [µM],TGI [3] [µM],TGI [4] [µM],TGI [5] [µM],TGI [6],TGI [7],TGI [8] [µM],TGI [9],GI50 [2] [µM],GI50 [3] [µM],GI50 [4] [µM],GI50 [5],GI50 [6],GI50 [8],GI50 [7] [µM],GI50 [9] [µM],TGI [10] [µM],GI50 [10] [µM]
Cc1cc(NCCCCCCNc2cc(C)nc3cc(N(C)C)ccc23)c2ccc(N(C)C)cc2n1,> 100,> 100,29.5,> 100,92.7,62.6 µM,> 100 µM,,,,,,,,,,,,
Cc1cc2c(C)nn(Cc3ccccc3)c2c(C(N)=O)c1C,> 100,> 100,> 100,> 100,> 100,> 100 µM,> 100 µM,> 100,> 100 µM,,,,,,,,,,
CCN(CC)CCOc1ccc(CCc2cc(OC)c(OC)c(OC)c2)cc1,53.8,,35.8,> 100,> 100,> 100 µM,,82.6,31 µM,,,,,,,,,,
O=C1NC2(CCCCCC2)C2CCCCCCC12O (stereo not given),> 100,> 100,> 100,> 100,> 100,> 100 µM,,> 100,> 100 µM,,,,,,,,,,
Clc1ccc(N=Nc2nc3ccccc3nc2N=Nc2ccc(Cl)cc2Cl)c(Cl)c1,> 100,> 100,,> 100,> 100,> 100 µM,> 100 µM,> 100,> 100 µM,,,,,,,,,,
COc1cc([C@@H]2c3cc4c(cc3[C@@H](OC(=O)c3ccc(N)cc3)C3COC(=O)[C@@H]32)OCO4)cc(OC)c1O (stereo not given in full),> 95,14.4,61.9,44.7,> 95,63.5 µM,36.3 µM,20.7,18.9 µM,,,,,,,,,,
N.N.N.N.N.[Cl-].[Co+3].c1ccc(-c2nn[n-]n2)cc1,,> 100,> 100,> 100,> 100,> 100 µM,> 100 µM,> 100,> 100 µM,> 100,> 100,> 100,> 100 µM,> 100 µM,> 100 µM,> 100,> 100,,
c1ccc(C(c2ccccc2)c2cccnc2)cc1,> 100,> 100,> 100,> 100,> 100,> 100 µM,> 100 µM,,> 100 µM,,,,,,,,,,
O=C(NC(=O)c1cn(CCN(CCO)C(=O)NCCCCCCNC(=O)N(CCO)CCn2cc(C(=O)NC(=O)OCc3ccccc3)c(=O)[nH]c2=O)c(=O)[nH]c1=O)OCc1ccccc1,> 100,> 100,> 100,,> 100,> 100 µM,,> 100,> 100 µM,,,,,,,,,,
c1cc2n(n1)CCN2,> 10000,6720,2440,> 10000,> 10000,9920 µM,> 7040 µM,> 10000,> 10000 µM,,,,,,,,,> 10000,
C[C@]12CCC(=O)C=C1CC[C@@H]1C2CC[C@]2(C)Nc3c(cnn3-c3ccccc3)CC12 (stereo not given in full),> 100,> 100,> 100,> 10,,> 100 µM,> 100 µM,,,,,,,,,,,,
O=c1c2ccccc2c(=O)n2n1CC=CC2,> 100,> 100,> 100,> 100,> 100,> 100 µM,> 100 µM,> 100,> 100 µM,,,,,,,,,,
CCOC1=C2C(=O)OC(=O)C2C2CCCCC2=C1 (stereo not given),> 100,> 100,> 100,> 100,> 100,> 100 µM,> 100 µM,> 100,> 100 µM,,,,,,,,,,
Cc1oc2c(C)c3oc(=O)cc(C)c3cc2c1CN1C(=O)C2OCCOCCOCCOCCOCCO[C@H]2C1=O (stereo not given in full),> 100,> 100,> 100,> 100,> 100,> 100 µM,> 100 µM,> 100,> 100 µM,,,,,,,,,,
O=C(CC(=O)C1=CNc2ccccc2S1)C(=O)Nc1ccc(Cl)cc1,> 50,> 50,> 50,> 50,> 50,> 50 µM,> 50 µM,> 50,> 50 µM,,,,,,,,,,
COC1OC(CBr)C(OC(=O)c2ccccc2)C(O)C1Br (stereo not given),> 100,> 100,> 100,> 100,> 100,> 100 µM,> 100 µM,> 100,> 100 µM,,,,,,,,,,
O=CN/C=C/c1cccc(O)c1,> 100,72.4,> 100,> 100,> 100,> 100 µM,> 100 µM,> 97.1,> 100 µM,,,,,,,,,> 97.5,

Structure (SMILES),TGI [1] [µM],TGI [2] [µM],TGI [3] [µM],TGI [4] [µM],TGI [5] [µM],TGI [6],TGI [7],TGI [8] [µM],TGI [9],GI50 [2] [µM],GI50 [3] [µM],GI50 [4] [µM],GI50 [5],GI50 [6],GI50 [8],GI50 [7] [µM],GI50 [9] [µM],TGI [10] [µM],GI50 [10] [µM]
COc1cc(NC(C)CCCN)c2ncccc2c1 (stereo not given),> 100,> 100,> 100,> 100,> 100,35.7 µM and 60.9 µM,31.6 µM and 58.5 µM,> 100,41.2 µM and 64 µM,,,,39.8 µM and > 100 µM,19.3 µM and 44.4 µM,27.2 µM and 62.6 µM,,,> 100,
O=C1C2C3C=C4c5ccccc5N(c5ccccc5)C4(C2C(=O)N1c1ccc(Cl)cc1)[C@H]1C(=O)N(c2ccc(Cl)cc2)C(=O)[C@@H]31 (stereo not given in full),> 100,> 100,> 100,> 100,> 100,> 100 µM,,> 100,> 100 µM,,,,,,,,,,
O=C(Nc1cccc(-n2cc(-c3ccncc3)c(-c3ccc(Cl)c(O)c3)n2)c1)c1ccc(N2CCOCC2)c(C(F)(F)F)c1,,30.2,,> 50,> 50,4.08 µM,> 50 µM,3.81,> 50 µM,4.2,,1.94,4.11 µM,1.25 µM,0.555 µM,5.66,> 50,> 50,4.2
CCCCC[C@H]1C/C=C2/C(=O)C=C[C@@H]2C/C=C\CCCC(=O)O[C@@H](CCCCC)C/C=C2/C(=O)C=C[C@@H]2C/C=C\CCCC(=O)O1,,0.822,,0.786,0.809,0.885 µM,0.816 µM,1.2,0.671 µM,0.289,,0.382,0.318 µM,0.338 µM,0.593 µM,0.422,0.25,1.34,0.355
COC1=CC(c2ccc[nH]2)=N/C1=C\c1[nH]c(C)c(C(=O)CCCCC(=O)NC(C)(C)C)c1C,,4.46,,2.38,18.7,3.12 µM,6.09 µM,4.97,2.46 µM,1.57,,1.16,3.01 µM,1.47 µM,1.54 µM,1.88,1.22,3.79,1.69
COCC(O)Cn1ccnc1[N+](=O)[O-] (stereo not given),> 100,> 100,> 100,> 100,> 100,> 100 µM,> 100 µM,,> 100 µM,,,,,,,,,,
COc1cccc(-c2nn(-c3ccccc3)cc2-c2ccnc(NCCCNC(=O)Nc3ccc(Cl)c(Cl)c3)c2)c1,,13.9,,11.3,25.6,3.9 µM,4.22 µM,7.68,3.82 µM,3.16,,2.75,4.01 µM,1.86 µM,2.32 µM,2.17,1.87,23,5.47
COc1ccc(/C=C/C(=O)c2ccc(O)c(CN3CCN(c4cc5c(cc4F)c(=O)c(C(=O)O)cn5C4CC4)CC3)c2)cc1,,> 100,,> 100,> 100,16.4 µM,> 100 µM,6.21,33.4 µM,2.33,,1.27,0.785 µM,1.59 µM,1.23 µM,4.15,11.8,> 100,1.47
CC1OC(OC2C[C@](O)(C(=O)CF)Cc3c(O)c4c(c(O)c32)C(=O)c2ccccc2C4=O)CC(N)C1O (stereo not given in full),0.248,0.169,0.104,0.239,5.23,0.191 µM,0.488 µM,0.805,0.266 µM,,,,,,,,,1.14,
CNCCCn1c2c(c3ccc([N+](=O)[O-])cc3c1=O)C(=O)c1cc(OC)cnc1-2,,0.267,,0.593,2.07,0.923 µM,1.06 µM,2.44,0.636 µM,0.04,,0.162,0.0394 µM,0.175 µM,0.237 µM,0.204,0.0569,1.15,0.052
Cc1ccc(SSc2ccc(C)cc2C(=O)O)c(C(=O)O)c1,> 100,> 100,> 100,> 100,> 100,> 100 µM,,> 100,> 100 µM,,,,,,,,,,
COC(=O)c1ccccc1OCc1cc(=O)oc2ccc(C)cc12,> 100,> 100,> 100,> 100,38.9,> 100 µM,> 100 µM,> 74.7,> 100 µM,,,,,,,,,> 100,
C1=CC=C2NCCCCCCCNC3=CC=CC=CC3=NCCCCCCCN=C2C=C1,> 100,> 100,39.9,> 100,> 100,> 100 µM,> 100 µM,98.6,> 100 µM,,,,,,,,,,
O=C1C(N2CC2)=C(N2CC2)C(=O)C(N2CC2)=C1N1CC1,,0.245,,2.72,4.32,1.31 µM,0.569 µM,29.7,0.404 µM,< 0.0233,,0.696,0.14 µM,0.225 µM,2.99 µM,0.168,0.163,0.487,
COc1ccc(-c2nc(/C=N/Nc3cc(C)nc4ccc(Cl)cc34)c(C)o2)cc1,,4.09,,3.49,3.46,3.43 µM,3.39 µM,2.98,3.18 µM,1.99,,1.79,1.81 µM,1.84 µM,1.5 µM,1.85,1.63,3.25,1.75
COc1ccc(C2CC(C)(O)Oc3cc4c(cc32)OCO4)cc1 (stereo not given),,> 100,,> 100,> 100,> 100 µM,> 100 µM,69.5,46 µM,,,,,,,,,> 100,
O=c1[nH]nc2ccccc2c1Cc1ccccc1,> 100,> 100,> 100,> 100,> 100,> 100 µM,> 100 µM,> 100,> 100 µM,,,,,,,,,,
